Molecules are shown by their SMILES. Values after ≈ are worked out from the molar mass of the structure shown. A value given as a limit tells only on which side of the number the result lay.

The subject of the assay is S. aureus 29213. Kind of assay: Bacterial growth minimal inhibitory concentrations (microdilution, cation-adjusted Mueller-Hinton Broth, CLSI M7-A7). Type of assay: cell-based. To be noted: Staphylococcus aureus, 29213; microdilution in cation-adjusted Mueller-Hinton Broth. The method, then: Bacterial Growth Minimal Inhibitory Concentrations: Minimal inhibitory concentrations (MICs; mg/l) were determined in cation-adjusted MuellerHinton Broth by a microdilution method following the description given in “Methods for Dilution Antimicrobial Susceptibility Tests for Bacteria that Grow Aerobically”, Approved standard, 7th ed., Clinical and Laboratory Standards Institute (CLSI) Document M7-A7, Wayne, Pa., USA, 2006. Typical antibacterial test results are given in Table 1 hereafter (MIC in mg/l).
A general note: Broth dilution looks for growth in wells or tubes with falling amounts of substance.
Molecule `Cn1c(=O)n(CC(O)CC[C@@H]2CN(c3ccc4c(n3)NC(=O)CS4)C(=O)O2)c(=O)c2ccccc21` (mixture of isomers) [Example 50, 3-{(RS)-2-hydroxy-4-[(R)-2-oxo-3-(3-oxo-3,4-dihydro-2H-pyrido[3,2-b][1,4]thiazin-6-yl)-oxazolidin-5-yl]-butyl}-1-methyl-1H-quinazoline-2,4-dione] returned an MIC of 0.125 µg/mL.

On to `O=C1CSc2ccc(N3CC(CCCCn4c(=O)[nH]c5ccccc5c4=O)OC3=O)cc2N1` (racemic) [Example 48, rac-3-{4-[2-oxo-3-(3-oxo-3,4-dihydro-2H-benzo[1,4]thiazin-6-yl)-oxazolidin-5-yl]-butyl}-1H-quinazoline-2,4-dione], for which the MIC was determined as 0.031 µg/mL (≈ 0.0664 µM). On to `Cn1c(=O)n(C[C@H](O)CC[C@@H]2CN(c3ccc4c(c3)NC(=O)CO4)C(=O)O2)c(=O)c2ccccc21` (racemic) [Example 49, 3-{(RS)-2-hydroxy-4-[(RS)-2-oxo-3-(3-oxo-3,4-dihydro-2H-benzo[1,4]oxazin-6-yl)-oxazolidin-5-yl]-butyl}-1-methyl-1H-quinazoline-2,4-dione], for which inhibition of growth (MIC) required 1 µg/mL (≈ 2.08 µM). Turning to `COC(=O)/C=C/c1ccc2c(=O)n(CCNCCC3CN(c4ccc5c(c4)NC(=O)CS5)C(=O)O3)c(=O)n(C)c2c1` (racemic) [Example 63, rac-(E)-3-[1-methyl-2,4-dioxo-3-(2-{2-[2-oxo-3-(3-oxo-3,4-dihydro-2H-benzo[1,4]thiazin-6-yl)-oxazolidin-5-yl]-ethylamino}-ethyl)-1,2,3,4-tetrahydro-quinazolin-7-yl]-acrylic acid methyl ester], the minimum inhibitory concentration (MIC) came out at 0.031 µg/mL (≈ 0.0535 µM). In turn, `O=C1CSc2ccc(N3C[C@H](CCCn4c(=O)[nH]c5ccccc5c4=O)OC3=O)cc2N1` [Example 1, 3-{3-[(S)-2-oxo-3-(3-oxo-3,4-dihydro-2H-benzo[1,4]thiazin-6-yl)-oxazolidin-5-yl]-propyl}-1H-quinazoline-2,4-dione] showed an MIC of at most 0.016 µg/mL. Turning to `Cn1c(=O)n(CCC[C@H]2CN(c3ccc4c(n3)NC(=O)CS4)C(=O)O2)c(=O)c2ccccc21` [Example 2, 1-methyl-3-{3-[(S)-2-oxo-3-(3-oxo-3,4-dihydro-2H-pyrido[3,2-b][1,4]thiazin-6-yl)-oxazolidin-5-yl]-propyl}-1H-quinazoline-2,4-dione], the MIC is at most 0.016 µg/mL.

The molecule `Cn1c(=O)n(CCC[C@H]2CN(c3ccc4c(c3)NC(=O)CS4)C(=O)O2)c(=O)c2ccccc21` [Example 3, 1-methyl-3-{3-[(S)-2-oxo-3-(3-oxo-3,4-dihydro-2H-benzo[1,4]-thiazin-6-yl)-oxazolidin-5-yl]-propyl}-1H-quinazoline-2,4-dione] registered an MIC of at most 0.016 µg/mL.

For the molecule `CCCn1c(=O)n(CCC[C@@H]2CN(c3ccc4c(c3)NC(=O)CS4)C(=O)O2)c(=O)c2ccccc21` [Example 4, 3-{3-[(R)-2-oxo-3-(3-oxo-3,4-dihydro-2H-benzo[1,4]-thiazin-6-yl)-oxazolidin-5-yl]-propyl}-1-propyl-1H-quinazoline-2,4-dione], the MIC was at most 0.25 µg/mL. Regarding `Cc1cccc2[nH]c(=O)n(CCC[C@@H]3CN(c4ccc5c(c4)NC(=O)CS5)C(=O)O3)c(=O)c12` [Example 5, 5-methyl-3-{3-[(R)-2-oxo-3-(3-oxo-3,4-dihydro-2H-benzo[1,4]-thiazin-6-yl)-oxazolidin-5-yl]-propyl}-1H-quinazoline-2,4-dione], the MIC is at most 0.016 µg/mL. `Cc1cccc2c1c(=O)n(CCC[C@H]1CN(c3ccc4c(c3)NC(=O)CS4)C(=O)O1)c(=O)n2C` [Example 6, 1,5-dimethyl-3-{3-[(S)-2-oxo-3-(3-oxo-3,4-dihydro-2H-benzo[1,4]-thiazin-6-yl)-oxazolidin-5-yl]-propyl}-1H-quinazoline-2,4-dione] gave an MIC of 0.031 µg/mL (≈ 0.0645 µM).

Regarding `Cc1cccc2[nH]c(=O)n(CCC[C@H]3CN(c4ccc5c(c4)NC(=O)CS5)C(=O)O3)c(=O)c12` [Example 7, 5-methyl-3-{3-[(S)-2-oxo-3-(3-oxo-3,4-dihydro-2H-benzo[1,4]-thiazin-6-yl)-oxazolidin-5-yl]-propyl}-1H-quinazoline-2,4-dione], the MIC is at most 0.016 µg/mL. The molecule `Cc1cccc2[nH]c(=O)n(CCC[C@H]3CN(c4ccc5c(n4)NC(=O)CS5)C(=O)O3)c(=O)c12` [Example 8, 5-methyl-3-{3-[(S)-2-oxo-3-(3-oxo-3,4-dihydro-2H-pyrido[3,2-b][1,4]thiazin-6-yl)-oxazolidin-5-yl]-propyl}-1H-quinazoline-2,4-dione] returned an MIC of at most 0.016 µg/mL.

As for `Cc1cccc2[nH]c(=O)n(CCC[C@@H]3CN(c4ccc5c(n4)NC(=O)CO5)C(=O)O3)c(=O)c12` [Example 9, 5-methyl-3-{3-[(R)-2-oxo-3-(3-oxo-3,4-dihydro-2H-pyrido[3,2-b][1,4]oxazin-6-yl)-oxazolidin-5-yl]-propyl}-1H-quinazoline-2,4-dione], it took 0.031 µg/mL (≈ 0.0687 µM) to inhibit growth (MIC). As to `Cc1ccc2[nH]c(=O)n(CCC[C@@H]3CN(c4ccc5c(c4)NC(=O)CS5)C(=O)O3)c(=O)c2c1` [Example 10, 6-methyl-3-{3-[(R)-2-oxo-3-(3-oxo-3,4-dihydro-2H-benzo[1,4]thiazin-6-yl)-oxazolidin-5-yl]-propyl}-1H-quinazoline-2,4-dione], 0.063 µg/mL (≈ 0.135 µM) was the least that counted as inhibitory (MIC).

The molecule `Cc1ccc2c(=O)n(CCC[C@@H]3CN(c4ccc5c(c4)NC(=O)CS5)C(=O)O3)c(=O)[nH]c2c1` [Example 11, 7-methyl-3-{3-[(R)-2-oxo-3-(3-oxo-3,4-dihydro-2H-benzo[1,4]-thiazin-6-yl)-oxazolidin-5-yl]-propyl}-1H-quinazoline-2,4-dione] yielded an MIC of 0.063 µg/mL (≈ 0.135 µM). `Cc1cccc2c(=O)n(CCC[C@@H]3CN(c4ccc5c(c4)NC(=O)CS5)C(=O)O3)c(=O)[nH]c12` [Example 12, 8-methyl-3-{3-[(R)-2-oxo-3-(3-oxo-3,4-dihydro-2H-benzo[1,4]-thiazin-6-yl)-oxazolidin-5-yl]-propyl}-1H-quinazoline-2,4-dione] had an MIC of at most 0.016 µg/mL. Take `Cc1cccc2c(=O)n(CCC[C@H]3CN(c4ccc5c(c4)NC(=O)CS5)C(=O)O3)c(=O)[nH]c12` [Example 13, 8-methyl-3-{3-[(S)-2-oxo-3-(3-oxo-3,4-dihydro-2H-benzo[1,4]thiazin-6-yl)-oxazolidin-5-yl]-propyl}-1H-quinazoline-2,4-dione]: the MIC is at most 0.016 µg/mL. `Cc1cccc2c(=O)n(CCC[C@H]3CN(c4ccc5c(n4)NC(=O)CS5)C(=O)O3)c(=O)[nH]c12` [Example 14, 8-methyl-3-{3-[(S)-2-oxo-3-(3-oxo-3,4-dihydro-2H-pyrido[3,2-b][1,4]thiazin-6-yl)-oxazolidin-5-yl]-propyl}-1H-quinazoline-2,4-dione]: the MIC was at most 0.016 µg/mL.

`Cc1cccc2c(=O)n(CCC[C@@H]3CN(c4ccc5c(n4)NC(=O)CO5)C(=O)O3)c(=O)[nH]c12` [Example 15, 8-methyl-3-{3-[(R)-2-oxo-3-(3-oxo-3,4-dihydro-2H-pyrido[3,2-b][1,4]oxazin-6-yl)-oxazolidin-5-yl]-propyl}-1H-quinazoline-2,4-dione] came in with an MIC of 0.063 µg/mL (≈ 0.14 µM).

For the molecule `O=C1CSc2ccc(N3C[C@@H](CCCn4c(=O)[nH]c5cccc(Cl)c5c4=O)OC3=O)cc2N1` [Example 16, 5-chloro-3-{3-[(R)-2-oxo-3-(3-oxo-3,4-dihydro-2H-benzo[1,4]thiazin-6-yl)-oxazolidin-5-yl]-propyl}-1H-quinazoline-2,4-dione], it took 0.031 µg/mL (≈ 0.0637 µM) to inhibit growth (MIC).

In general, MIC refers to the lowest concentration found to suppress growth. Higher therefore signals a less susceptible organism.
